Results as given in PubChem BioAssay (NCI).
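Step 1: Grow cells in 96-well plates. Step 2: Expose to compound for 48 hours at 5 concentrations. Step 3: Interpolate endpoints linearly; if unreached, use highest concentration. TGI: concentration producing complete growth inhibition.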

Experiments:
Experiment in all cases: growth of human tumour cells (NCI), 48 h
A498 renal = tested on: A498 renal
CAKI-1 renal = tested on: CAKI-1 renal
COLO 205 colon = tested on: COLO 205 colon
HCT-116 colon = tested on: HCT-116 colon
MDA-MB-435 = tested on: MDA-MB-435
OVCAR-5 ovarian = tested on: OVCAR-5 ovarian
SK-MEL-28 melanoma = tested on: SK-MEL-28 melanoma
SK-OV-3 ovarian = tested on: SK-OV-3 ovarian
SN12C renal = tested on: SN12C renal
K-562 leukemia = tested on: K-562 leukemia
UO-31 renal = tested on: UO-31 renal

| SMILES | TGI (A498 renal) [µM] | TGI (CAKI-1 renal) [µM] | TGI (COLO 205 colon) [µM] | TGI (HCT-116 colon) [µM] | TGI (MDA-MB-435) [µM] | TGI (OVCAR-5 ovarian) [µM] | TGI (SK-MEL-28 melanoma) [µM] | TGI (SK-OV-3 ovarian) [µM] | TGI (SN12C renal) [µM] | TGI (K-562 leukemia) [µM] | TGI (UO-31 renal) [µM] |
| --- | --- | --- | --- | --- | --- | --- | --- | --- | --- | --- | --- |
| CC(=O)NC1C(Sc2ncn(C3OC(CO)C(O)C(O)C3NC(C)=O)n2)OC(CO)C(O)C1O (stereo not given) | > 100 | > 100 | > 100 | > 100 | > 100 | > 100 | > 100 | > 100 | > 100 |  |  |
| CC(=O)c1c(N=[N+]=[N-])c2cccc3c2n(c1=O)CCC3 | 55.6 | 57.8 | 44.6 | 33.5 | 42.7 | 34.5 |  | > 100 | 44.5 | > 100 | 55.6 |
| Cc1ccc(S(=O)(=O)C2=C(C(C)C)N=NC2(C)C)cc1 | > 100 | > 100 |  | > 100 | > 100 | > 100 | > 100 |  | > 100 | > 100 | > 100 |
| Cc1ccc2c(c1)CC1(Cc3cccc(C)c3C1=O)C2=O (stereo not given) | > 100 |  | > 100 | > 100 | > 10 | > 100 | > 100 | > 100 | > 100 | > 100 | > 100 |
| COc1ccc2nc(-c3ccccc3)c(=O)[nH]c2c1 | > 100 | > 100 | > 100 | > 100 | > 100 | > 100 | > 100 |  | > 100 | > 100 |  |
| CCOC(=O)c1ccc(-c2ccc(Cl)cc2)[nH]1 |  |  |  | > 10 | > 10 | > 10 |  | > 10 | > 10 | > 10 | > 10 |
| CCOC(=O)CCC(NC(=O)c1ccc(NCc2ccc3nc(-c4ccccc4)c(Cl)nc3c2)cc1)C(=O)OCC (stereo not given) | 78.6 | > 100 | 41.7 | > 100 |  | > 100 |  | > 100 | > 100 | > 100 | 65.8 |
| CS(=O)(=O)N1CC(CCl)c2ccc(O)cc21 (stereo not given) | 3.78 | 12.3 | 4.34 | 11.1 | 3.86 | 16.3 | 14.2 |  | 14.5 | > 100 | 5.79 |
| COc1ccc(/C(Cl)=C(\C#N)c2ccc(OC)c(OC)c2)cc1OC | > 100 | > 100 | > 100 | > 100 | > 100 | > 100 |  |  | > 100 | > 100 | > 100 |
| CCOP(=O)(OCC)/C(C#N)=C/c1ccc(-c2cc(C(F)(F)F)cc(C(F)(F)F)c2)o1 | 24.8 |  | 27.4 | 26.2 | 29 | 26.1 | 33 |  | 29.1 | 13.8 | 34.9 |
| CC(NC(=O)Cc1ccccc1)NC(=O)C(C)C(=O)NCc1ccccc1 (stereo not given) |  | > 100 | > 100 | > 100 | > 100 | > 100 |  | > 100 | > 100 | > 100 | > 100 |
| CC1(C)O[C@H]2OC(CO)C(N=[N+]=[N-])[C@H]2O1 (stereo not given in full) | > 100 | > 100 | > 100 | > 100 | > 100 | > 100 | > 100 |  | > 100 |  | > 100 |
| N/C(=N\S(=O)(=O)c1ccc(-c2ncccc2C(F)(F)F)s1)Nc1ccc(Cl)cc1 | 30.7 |  | > 100 | 32.5 |  | 44 | 34.4 | 33.7 | 38.3 | 63.8 | 38.4 |
| Cc1ccc(NC(=O)C(=O)C2C(=O)NC(=O)NC2=O)cc1C |  | > 100 | > 100 | > 100 |  | > 100 | > 100 | > 100 | > 100 | > 100 | > 100 |
| O=C1c2ccccc2C(=O)N1C/C=N/NS(=O)(=O)c1ccc(Br)cc1 | > 100 | > 100 | > 100 | > 100 |  | > 100 | > 100 | > 100 | > 100 | > 100 | > 100 |
| NCCCN(CCCN)CCc1cn(C(=O)c2ccccc2)cn1 |  | 16.1 | 9.58 | > 51.2 | 14.3 | 33.4 | 33.2 | 27.5 | 26.2 | > 37.4 |  |
| COc1cccc(-c2nc(-c3cnccn3)n(C/C=C/c3ccccc3)n2)c1 |  |  |  |  | > 10 | > 10 |  |  | > 10 | > 10 | > 10 |
| CCOC(=O)c1c(OCC)[nH]c(=O)c(C(c2cccs2)c2c(O)c(C(=O)OCC)c(OCC)[nH]c2=O)c1O | 23.5 | 65.4 | 40.7 | 45 | 32.4 | > 100 | 43.6 |  | 34.6 |  | 26.7 |
| CC(=O)O[C@@]12CO[C@@H]1CC(O)[C@@]1(C)C(=O)[C@H](O)C3=C(C)C(O)C[C@@](O)(C(OC(=O)c4ccccc4)C12)C3(C)C (stereo not given in full) | > 100 | > 100 | 6.72 | 19.2 | 0.413 | > 29.1 |  |  | > 100 | > 100 | > 100 |
| CCCC(=O)[O-].CCCC(=O)[O-].NCCN.NCCN.[Co+3].[O-][Cl+3]([O-])([O-])[O-] | > 100 |  | > 100 | > 100 |  | > 100 | > 100 | > 100 | > 100 | > 100 | > 100 |
| CSc1ccc2c(cc1=O)[C@@H](NC(=O)c1cc(O)c(O)c(O)c1)CCc1cc(O)c(O)c(O)c1-2 | > 100 |  | 75.3 | 29.4 |  | 31.3 | 94.8 | > 100 | 34.5 | 18.9 | 83.8 |
| COC(=O)C1=C(OC)[C@H]2C#C/C=C\C#C[C@@H]3Nc4c(cc(O)c5c4C(=O)c4ccccc4C5=O)[C@]24O[C@@]34[C@H]1C | < 0.01 | < 0.01 | 0.014 | 7.6 | 0.0448 | 0.0311 |  |  | < 0.01 | 0.0139 | < 0.01 |
| COc1cc(Nc2nc3cc(C(F)(F)F)ccc3nc2C(=O)O)cc(OC)c1OC | > 100 | 99 | > 100 | > 100 | > 100 | > 100 | > 100 |  | > 100 |  | > 100 |
